Assay results taken from US20170226081A1, “GLUCOSE TRANSPORT INHIBITORS” (Bayer Pharma Aktiengesellschaft, priority 2014, published 2017).

Each molecule was assayed against T1, GLUT1 (Homo sapiens, UniProt P11166) (assay: Indirect measurement of GLUT activity by quantification of intracellular ATP levels (glucose induced ATP increase)). Settings: DLD1 cells; 1 mM glucose, 1 uM Rotenone, 15 min; standardized to cytochalasin B IC50 values; read-out: IC50 regarding glucose induced ATP increase (GLUT1 inhibition).
T1 construct: endogenous in cells
T1 sequence (P11166 1-492): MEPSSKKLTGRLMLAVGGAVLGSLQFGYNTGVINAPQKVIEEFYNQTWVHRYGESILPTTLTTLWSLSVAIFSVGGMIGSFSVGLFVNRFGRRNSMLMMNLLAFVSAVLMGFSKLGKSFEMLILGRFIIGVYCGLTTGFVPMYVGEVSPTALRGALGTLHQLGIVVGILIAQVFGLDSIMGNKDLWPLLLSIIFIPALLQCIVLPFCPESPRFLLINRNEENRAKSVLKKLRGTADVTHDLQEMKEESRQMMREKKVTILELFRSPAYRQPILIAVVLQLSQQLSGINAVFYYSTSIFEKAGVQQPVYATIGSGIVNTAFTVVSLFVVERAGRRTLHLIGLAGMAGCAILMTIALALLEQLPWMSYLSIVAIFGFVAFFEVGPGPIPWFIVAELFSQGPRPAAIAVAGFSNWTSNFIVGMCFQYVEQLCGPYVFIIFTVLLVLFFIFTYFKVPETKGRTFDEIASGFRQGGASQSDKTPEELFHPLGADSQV
Assay type: cell-based
From the text: (§1) It is well known that a combination of small-molecule inhibitors of mitochondrial electron transport chain and glucose catabolism synergistically suppress ATP production and impair cellular viability (Ulanovskaya et al., 2008, 2011; Liu, et al. 2001). We therefore used DLD1 or CHO-K1 cells in combination with an oxidative phosphorylation inhibitor to identify GLUT inhibitors. Cell lines were maintained in DMEM medium supplemented with 10% FCS and 1% Penicillin-Streptomycin solution and 2% Glutamax. The cells were treated with trypsin and seeded into 384 plates at a density of 4000 cells/well. The cells were then cultured overnight in glucose free media containing 1% FCS to reduce intracellular ATP levels. After 24 h the cells were incubated at 37° C. containing the appropriate glucose or in case of GLUT2 fructose concentration (1 mM and 30 mM respectively) with or without compounds and 1 uM Rotenone for 15 min. The CellTiter-Glo® Luminescent Cell Viability Assay from Promega was then used to measure ATP levels. Compounds able to reduce the ATP Levels within 15 min of glucose application were considered to be glucose uptake inhibitors.

Compared with `Cc1ccc2nc(C)cc(C(=O)Nc3cn(Cc4ccc(F)cc4)nc3C)c2c1` [Example 1, N-[1-(4-fluorobenzyl)-3-methyl-1H-pyrazol-4-yl]-2,6-dimethylquinoline-4-carboxamide], `Cc1ccc2nc(C)cc(C(=O)Nc3cn(Cc4ccc(F)cc4)nc3C(F)(F)F)c2c1` [Example 33, N-[1-(4-fluorobenzyl)-3-(trifluoromethyl)-1H-pyrazol-4-yl]-2,6-dimethylquinoline-4-carboxamide] is 3-fold higher in IC50: 61 nM for the first, 183 nM for the second.

Compared with `Cc1nn(Cc2ccc(C#N)cc2)cc1NC(=O)c1cc(C(N)=O)nc2ccccc12` [Example 9, N^4-[1-(4-cyanobenzyl)-3-methyl-1H-pyrazol-4-yl]quinoline-2,4-dicarboxamide], `COc1ccc(Cn2cc(NC(=O)c3cc(C(N)=O)nc4ccccc34)c(C)n2)cc1` [Example 13, N^4-[1-(4-methoxybenzyl)-3-methyl-1H-pyrazol-4-yl]quinoline-2,4-dicarboxamide] is 1.9-fold lower in IC50: 4.3 nM for the first, 2.3 nM for the second.

First: Cc1nn(Cc2ccc(C#N)cc2)cc1NC(=O)c1cc(C(F)(F)F)nc2ccc(Br)cc12 [Example 8, 6-bromo-N-[1-(4-cyanobenzyl)-3-methyl-1H-pyrazol-4-yl]-2-(trifluoromethyl)quinoline-4-carboxamide]
Second: N#Cc1ccc(Cn2cc(NC(=O)c3cc(C(F)(F)F)nc4ccc(Br)cc34)c(C(=O)O)n2)cc1 [Example 25, 4-({[6-bromo-2-(trifluoromethyl)quinolin-4-yl]carbonyl}amino)-1-(4-cyanobenzyl)-1H-pyrazole-3-carboxylic acid]
The IC50 of the first is 490-fold lower: 21 nM for the first, 10200 nM for the second. The first is the more potent here.

Compared with `N#Cc1ccc(Cn2cc(NC(=O)c3cc(C(N)=O)nc4ccccc34)c(C(F)(F)F)n2)cc1` [Example 39, N^4-[1-(4-cyanobenzyl)-3-(trifluoromethyl)-1H-pyrazol-4-yl]quinoline-2,4-dicarboxamide], `CS(=O)(=O)c1ccc(Cn2cc(NC(=O)c3cc(C(N)=O)nc4ccccc34)c(C(F)(F)F)n2)cc1` [Example 42, N^4-{1-[4-(methylsulfonyl)benzyl]-3-(trifluoromethyl)-1H-pyrazol-4-yl}quinoline-2,4-dicarboxamide] is 3-fold higher in IC50: 20 nM for the first, 61 nM for the second. The first is the more potent here.

Compared with `CS(=O)(=O)c1ccc(Cn2cc(NC(=O)c3cc(C(N)=O)nc4cc(F)c(Cl)cc34)c(C(F)(F)F)n2)cc1` [Example 44, 6-chloro-7-fluoro-N^4-{1-[4-(methylsulfonyl)benzyl]-3-(trifluoromethyl)-1H-pyrazol-4-yl}quinoline-2,4-dicarboxamide], `COc1ccc(Cn2cc(NC(=O)c3cc(C(N)=O)nc4cc(F)c(Cl)cc34)c(C(F)(F)F)n2)cc1` [Example 46, 6-chloro-7-fluoro-N^4-[1-(4-methoxybenzyl)-3-(trifluoromethyl)-1H-pyrazol-4-yl]quinoline-2,4-dicarboxamide] is 2.3-fold lower in IC50: 11 nM for the first, 4.7 nM for the second. The second is the more potent here.

First: COC(=O)c1nn(Cc2ccc(C#N)cc2)cc1NC(=O)c1cc(C(F)(F)F)nc2ccc(Br)cc12 [Example 24, methyl 4-({[6-bromo-2-(trifluoromethyl)quinolin-4-yl]carbonyl}amino)-1-(4-cyanobenzyl)-1H-pyrazole-3-carboxylate]
Second: N#Cc1ccc(Cn2cc(NC(=O)c3cc(C(F)(F)F)nc4ccc(Br)cc34)c(C(F)(F)F)n2)cc1 [Example 36, 6-bromo-N-[1-(4-cyanobenzyl)-3-(trifluoromethyl)-1H-pyrazol-4-yl]-2-(trifluoromethyl)quinoline-4-carboxamide]
The IC50 of the first is 20-fold higher: 1650 nM for the first, 84 nM for the second.

These molecules were tested against T2, GLUT2 (Homo sapiens, UniProt P11168) (assay: Indirect measurement of GLUT activity by quantification of intracellular ATP levels (fructose induced ATP increase)). Settings: 30 mM fructose, 1 uM Rotenone, 15 min; read-out: IC50 regarding fructose induced ATP increase (GLUT2 inhibition).
T2 sequence (P11168 1-524): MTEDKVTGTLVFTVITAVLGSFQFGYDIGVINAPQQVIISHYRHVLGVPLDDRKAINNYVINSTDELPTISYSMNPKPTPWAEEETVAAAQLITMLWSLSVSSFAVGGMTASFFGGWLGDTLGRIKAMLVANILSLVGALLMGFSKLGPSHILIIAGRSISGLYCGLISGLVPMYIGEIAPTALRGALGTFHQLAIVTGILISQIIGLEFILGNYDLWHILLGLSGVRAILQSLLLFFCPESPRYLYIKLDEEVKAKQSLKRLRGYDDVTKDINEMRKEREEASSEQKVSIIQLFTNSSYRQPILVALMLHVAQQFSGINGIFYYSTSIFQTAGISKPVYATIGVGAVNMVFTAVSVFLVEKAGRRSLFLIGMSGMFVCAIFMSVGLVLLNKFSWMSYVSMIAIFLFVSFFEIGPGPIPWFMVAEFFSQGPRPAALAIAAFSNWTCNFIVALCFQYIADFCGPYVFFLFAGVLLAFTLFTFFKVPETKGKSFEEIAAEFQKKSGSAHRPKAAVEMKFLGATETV
Assay type: cell-based
From the text: as §1

Going from `Cc1ccc2nc(C)cc(C(=O)Nc3cn(Cc4ccc(F)cc4)nc3C)c2c1` [Example 1, N-[1-(4-fluorobenzyl)-3-methyl-1H-pyrazol-4-yl]-2,6-dimethylquinoline-4-carboxamide] to `Cc1nn(Cc2ccc(C#N)cc2)cc1NC(=O)c1cc(C(N)=O)nc2ccccc12` [Example 9, N^4-[1-(4-cyanobenzyl)-3-methyl-1H-pyrazol-4-yl]quinoline-2,4-dicarboxamide], the IC50 rises from 5210 nM to 36100 nM (6.9-fold). The first is the more potent here.
